Reference: PubChem BioAssay AID330 (DTP/NCI, 2004)
Where “and” joins values, the source holds several entries; their conditions need not be identical. Identical values can stand only once. Inconclusive results and toxic doses are left out. The calls were made as follows: active = survival T/C of 150% or more; inactive = T/C below 125% in these data.

Test system: P388 leukemia ip, CD2F1 mice, survival T/C
Assay: NCI In Vivo Anticancer Drug Screen. Data for tumor model P388 Leukemia (intraperitoneal) in CD2F1 (CDF1) mice
Conditions: endpoint: median survival time, higher = longer survival
Outline: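 Mice carrying the transplanted tumor received test compound or vehicle. Survival was recorded in each group, and the value is the treated-group measurement divided by that of the vehicle-treated control group.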

[1] = dose: 50.0 mg/kg/injection, schedule: Q01DX005 (ip), vehicle: saline with Tween-80
[2] = dose: 100.0 mg/kg/injection, schedule: Q01DX005 (ip), vehicle: saline with Tween-80
[3] = dose: 200.0 mg/kg/injection, schedule: Q01DX005 (ip), vehicle: saline with Tween-80
[4] = dose: 50.0 mg/kg/injection, schedule: Q01DX005 (ip), vehicle: Klucel (hydroxypropylcellulose) (HPC)
[5] = dose: 100.0 mg/kg/injection, schedule: Q01DX005 (ip), vehicle: Klucel (hydroxypropylcellulose) (HPC)
[6] = dose: 200.0 mg/kg/injection, schedule: Q01DX005 (ip), vehicle: Klucel (hydroxypropylcellulose) (HPC)
[7] = dose: 30.0 mg/kg/injection, schedule: Q01DX005 (ip), vehicle: saline with Tween-80
[8] = dose: 60.0 mg/kg/injection, schedule: Q01DX005 (ip), vehicle: saline with Tween-80
[9] = dose: 120.0 mg/kg/injection, schedule: Q01DX005 (ip), vehicle: saline with Tween-80
[10] = dose: 240.0 mg/kg/injection, schedule: Q01DX005 (ip), vehicle: saline with Tween-80
[11] = dose: 25.0 mg/kg/injection, schedule: Q01DX009 (ip), vehicle: Klucel (hydroxypropylcellulose) (HPC)
[12] = dose: 100.0 mg/kg/injection, schedule: Q01DX009 (ip), vehicle: saline with Tween-80
[13] = dose: 100.0 mg/kg/injection, schedule: Q04DX003 (ip), vehicle: saline with Tween-80
[14] = dose: 200.0 mg/kg/injection, schedule: Q01DX009 (ip), vehicle: saline with Tween-80
[15] = dose: 200.0 mg/kg/injection, schedule: Q04DX003 (ip), vehicle: saline with Tween-80
[16] = dose: 50.0 mg/kg/injection, schedule: Q01DX009 (ip), vehicle: saline with Tween-80
[17] = dose: 50.0 mg/kg/injection, schedule: Q01DX009 (ip), vehicle: saline
[18] = dose: 100.0 mg/kg/injection, schedule: Q01DX009 (ip), vehicle: saline

Measured: T/C

COC(=O)Nc1nc2ccc(-c3c(C)oc(C)c3C(=O)O)cc2[nH]1
inactive: [1] 97 % of control | [2] 97 % of control | [3] 87 % of control

CC(=Nc1ccc2c(c1)C(=O)c1ccc(N=C(C)N(C)C)cc1C2=O)N(C)C
inactive: [4] 100 % of control | [5] 109 % of control | [6] 100 % of control

Cc1cc(N=[N+]=[N-])c2cc(F)ccc2n1
inactive: [7] 92 % of control | [8] 90 % of control and 92 % of control

CSc1nc(NC2OCC(OC(C)=O)C(OC(C)=O)C2OC(C)=O)c(N=C(C)C(C)=O)c(=O)[nH]1 (stereo not drawn)
inactive: [8] 95 % of control | [9] 108 % of control | [10] 95 % of control

Nc1nc(-c2ccccc2)c(CCCNc2ccc(C(=O)NC(CCC(=O)O)C(=O)O)cc2)c(=O)[nH]1 (stereo not drawn)
inactive: [4] 102 % of control | [5] 102 % of control | [6] 106 % of control

O=C(CC(=O)c1ccc(Cl)s1)C(=O)NC1C2CC3CC(C2)CC1C3 (stereo not drawn)
inactive: dose: 7.5 mg/kg/injection, schedule: Q01DX005 (ip), vehicle: saline with Tween-80 100 % of control | dose: 15.0 mg/kg/injection, schedule: Q01DX005 (ip), vehicle: saline with Tween-80 102 % of control | [7] 100 % of control | [8] 94 % of control and 95 % of control

O=C(O)c1cc[c]([Hg][S]c2ncnc3nc[nH]c23)cc1
inactive: dose: 1.56 mg/kg/injection, schedule: Q01DX009 (ip), vehicle: saline with Tween-80 106 % of control | dose: 3.13 mg/kg/injection, schedule: Q01DX009 (ip), vehicle: saline with Tween-80 110 % of control and 123 % of control | dose: 6.25 mg/kg/injection, schedule: Q01DX009 (ip), vehicle: saline with Tween-80 100 % of control | dose: 12.5 mg/kg/injection, schedule: Q01DX009 (ip), vehicle: saline with Tween-80 100 % of control | [11] 121 % of control

CN(C)C1=NC(NC2CCCCC2)(N(C)C)OC(N(C)C)=N1 (stereo not drawn)
inactive: dose: 25.0 mg/kg/injection, schedule: Q01DX005 (ip), vehicle: Klucel (hydroxypropylcellulose) (HPC) 105 % of control | [4] 96 % of control | [5] 100 % of control

CCCn1c(=S)[nH]c2ccccc2c1=O
inactive: [12] 95 % of control | [13] 100 % of control | [14] 90 % of control | [15] 91 % of control | dose: 400.0 mg/kg/injection, schedule: Q01DX009 (ip), vehicle: saline with Tween-80 100 % of control | dose: 400.0 mg/kg/injection, schedule: Q04DX003 (ip), vehicle: saline with Tween-80 91 % of control

CC1(CN2CCCCC2)COc2c(Cl)cc(Cl)cc2C1=O (stereo not drawn)
inactive: [8] 94 % of control | [9] 94 % of control | [10] 86 % of control

Cc1ccc(S(=O)(=O)c2cc3ccccc3oc2=O)cc1
inactive: [8] 91 % of control | [9] 88 % of control

CC(C)(C)CC(C)(C)c1ccc(OCc2cccc(Cl)c2)cc1
inactive: [16] 97 % of control | [12] 96 % of control | [14] 95 % of control

CCOC(=O)C1=C(C)NC(C)=C(C(=O)OCC)C1c1ccc(OC)cc1
inactive: [11] 94 % of control | dose: 50.0 mg/kg/injection, schedule: Q01DX009 (ip), vehicle: Klucel (hydroxypropylcellulose) (HPC) 91 % of control | dose: 100.0 mg/kg/injection, schedule: Q01DX009 (ip), vehicle: Klucel (hydroxypropylcellulose) (HPC) 100 % of control | dose: 200.0 mg/kg/injection, schedule: Q01DX009 (ip), vehicle: Klucel (hydroxypropylcellulose) (HPC) 101 % of control

COC(=O)C(OC)C(O)C(OC)OC (stereo not drawn)
inactive: [1] 100 % of control | [2] 101 % of control | [3] 104 % of control

COc1ccc(CSC(=S)Nc2ccc(C)c(Br)c2)cc1
inactive: [17] 100 % of control | [18] 97 % of control | dose: 100.0 mg/kg/injection, schedule: Q01DX009 (ip), vehicle: suspension in saline 91 % of control | dose: 200.0 mg/kg/injection, schedule: Q01DX009 (ip), vehicle: saline 106 % of control | dose: 200.0 mg/kg/injection, schedule: Q01DX009 (ip), vehicle: suspension in saline 104 % of control

CCN(CC)CCCC(C)NC(Cc1ccccc1)c1cccc2ccccc12 (stereo not drawn)
inactive: dose: 25.0 mg/kg/injection, schedule: Q01DX005 (ip), vehicle: suspension in saline 100 % of control | dose: 50.0 mg/kg/injection, schedule: Q01DX005 (ip), vehicle: suspension in saline 106 % of control

CC1(C)OC2(C)CCC1C1C2N1C(=O)C1CC1 (stereo not drawn)
inactive: [1] 97 % of control | [2] 104 % of control | [3] 105 % of control

NNc1ccc2nnc(Cl)n2n1
inactive: dose: 100.0 mg/kg/injection, schedule: Q04DX002 (ip), vehicle: saline 101 % of control | dose: 200.0 mg/kg/injection, schedule: Q04DX002 (ip), vehicle: saline 102 % of control | dose: 400.0 mg/kg/injection, schedule: Q04DX002 (ip), vehicle: saline 108 % of control

C=C(C)C12OC1[C@@]1(C)C(=CC2=O)CCC(O)[C@@H]1C (stereo partly drawn)
inactive: dose: 20.0 mg/kg/injection, schedule: Q01DX005 (ip), vehicle: saline 101 % of control | dose: 40.0 mg/kg/injection, schedule: Q01DX005 (ip), vehicle: saline 104 % of control | dose: 80.0 mg/kg/injection, schedule: Q01DX005 (ip), vehicle: saline 100 % of control

CCOC(=O)C(CCC(C)(C)SCc1ccccc1)(NC(C)=O)C(=O)OCC
inactive: [16] 91 % of control | [12] 91 % of control | [14] 86 % of control

CCCCOc1ccc(-c2c(COC(=O)NC)c(COC(=O)NC)c(C)n2C)cc1
inactive: dose: 7.5 mg/kg/injection, schedule: Q01DX009 (ip), vehicle: distilled water + Tween-80 120 % of control

CN1CCN(c2ccncc2S(=O)(=O)N2CCCC2)CC1
inactive: [17] 107 % of control | [18] 104 % of control

O=C1CN(c2ccccc2)C(=O)CN1/N=C/c1ccc(O)c(O)c1
inactive: [1] 93 % of control | [2] 100 % of control | [3] 101 % of control

CCCCCCCC/C=C\CCCCCCCCSC1=CC(=O)C(OC)=C(OC)C1=O
inactive: dose: 3.13 mg/kg/injection, schedule: Q01DX009 (ip), vehicle: Klucel (hydroxypropylcellulose) (HPC) 98 % of control | dose: 6.25 mg/kg/injection, schedule: Q01DX009 (ip), vehicle: Klucel (hydroxypropylcellulose) (HPC) 96 % of control | dose: 12.5 mg/kg/injection, schedule: Q01DX009 (ip), vehicle: Klucel (hydroxypropylcellulose) (HPC) 100 % of control | [11] 103 % of control

CC1=C(/C=C/C(C)=C/C=C/C(C)=C/C=C/C=C(C)/C=C/C=C(C)/C=C/C2=C(C)C(=O)CCC2(C)C)C(C)(C)CCC1=O
inactive: [8] 98 % of control | [9] 88 % of control | [10] 91 % of control

C=C1C(=O)OC2C1C(OC(=O)/C(=C/CO)CO)CC1(CO1)C1CC=C(C)C21 (stereo not drawn)
inactive: dose: 0.94 mg/kg/injection, schedule: Q01DX005 (ip), vehicle: Klucel (hydroxypropylcellulose) (HPC) 111 % of control | dose: 1.87 mg/kg/injection, schedule: Q01DX005 (ip), vehicle: Klucel (hydroxypropylcellulose) (HPC) 107 % of control | dose: 3.75 mg/kg/injection, schedule: Q01DX005 (ip), vehicle: Klucel (hydroxypropylcellulose) (HPC) 108 % of control

CC(=O)OC1CCCCC1C (stereo not drawn)
inactive: [16] 113 % of control | dose: 50.0 mg/kg/injection, schedule: Q04DX003 (ip), vehicle: saline with Tween-80 105 % of control | [12] 118 % of control | [13] 110 % of control | [14] 109 % of control | [15] 110 % of control
